Reference: US20050282889A1, “Intracorporeal medicaments for photodynamic treatment of disease” (priority 1996, published 2005)

Tests used:
[1] = Absorbance properties of halogenated xanthenes (λmax, α); format: physicochemical
From the text: Certain general properties of this class of agents are discussed in further detail in U.S. Ser. No. 09/130,041, filed on Aug. 6, 1998, U.S. Ser. No. 09/184,388, filed on Nov. 2, 1998, and U.S. Ser. No. 09/216,787, filed on Dec. 21, 1998, which are herein incorporated by reference in their entirety.

[2] = Photochemical quantum yields (triplet, singlet oxygen); format: physicochemical
renal adenocarcinoma [3] = assay: Per oesophageal Rose Bengal plus 532 nm light, murine renal adenocarcinoma tumor model; format: in vivo, Balb C Nude (nu/nu) mice
BNL/SV40 Liver Cell = assay: Intratumoral injection plus light, murine tumor model; format: in vivo; details: i.t. approx. 30 μL 10% solution, tumor 8 × 10 × 5 mm, 50 J/cm^2 532 nm
[4] = system: Human Breast Adenocarcinoma (MCF-7); assay: as above; format: in vivo; details: i.t. approx. 30 μL 10% solution, tumor 3 × 4 × 4 mm, 100 J/cm^2 532 nm
Renal Adenocarcinoma [5] = assay: as above; format: in vivo; details: for No. Tumors Cured: 4 treated
[6] = system: tumor cell suspensions (e.g. melanoma, breast tumor, liver tumor, renal carcinoma, gall bladder tumor or prostate tumor); assay: Photodynamic treatment of subcutaneous primary tumors in nude mice; format: in vivo
[7] = Retention of agent after intratumoral or peritumoral injection; details: mouse, in vivo
Experimental: Initially, tumor cell suspensions (e.g. melanoma, breast tumor, liver tumor, renal carcinoma, gall bladder tumor or prostate tumor) were injected subcutaneously into the flanks of nude mice resulting in formation of primary tumors, within a few weeks, at the injection site having a volume of approximately 0.1 cm^3 to 0.5 cm^3.

cutaneous lipocytes = assay: Systemic administration to obese mice: accumulation in and photodynamic destruction of cutaneous lipocytes; format: in vivo, obese laboratory mice
From the text: For example, Rose Bengal's relatively large partition coefficient is indicative of a preference for accumulation in lipophilic tissue, such as cutaneous lipocytes.

[8] = system: procaryotic or eucaryotic cell cultures; assay: Dark and light cytotoxicity in cell cultures; format: cell-based; details: concentrations equivalent to or greater than 100 mg/kg
From the text: Further, the inventors of the present invention have shown that these agents are readily cleared from healthy tissues in a matter of several hours and are known to be rapidly excreted in bile, urine and feces, without doing damage to those healthy tissues while it was there.

cutaneous tumors = assay: Per oesophageal Rose Bengal plus green light, mice with cutaneous tumors; format: in vivo; details: approximately 10% W/V solution p.o.; green light 500-600 nm
esophageal tissue = assay: Per oesophageal Rose Bengal plus green light on esophageal tissue; format: in vivo, canines; details: approximately 1.0% W/V solution p.o.; green light 500-600 nm
prostate tumor = assay: Intratumoral Rose Bengal plus green light; format: in vivo; details: approximately 10% W/V solution i.t.; green light 500-600 nm
lung tumor = assay: Intratumoral Rose Bengal plus green light; format: in vivo; details: approximately 10% W/V solution i.t.; green light 500-600 nm
metastatic breast tumor = assay: Intratumoral Rose Bengal plus green light; format: in vivo; details: approximately 10% W/V solution i.t.; green light 500-600 nm
thyroid tumor = assay: Intratumoral Rose Bengal plus green light; format: in vivo; details: approximately 10% W/V solution i.t.; green light 500-600 nm
[9] = Serum level after per oesophageal administration; format: in vivo; details: approximately 10% W/V solution p.o.
[10] = system: antibiotic resistant Staphylococcus aureus; assay: Photodynamic eradication of microbes; format: cell-based; details: aqueous solution approximately 1 to 10 micromolar; green light 500-600 nm
Escherichia coli = assay: Photodynamic eradication of microbes; format: cell-based; details: aqueous solution approximately 1 to 10 micromolar; green light 500-600 nm
various yeasts = assay: Photodynamic eradication of microbes; format: cell-based; details: aqueous solution approximately 1 to 10 micromolar; green light 500-600 nm
[11] = No Light control, 0 J/cm^2, i.t. 10% solution, tumor 2 × 3 × 3 mm
[12] = i.t. approx. 30 μL 10% solution, tumor 2 × 3 × 3 mm, 100 J/cm^2 532 nm
[13] = i.t. approx. 30 μL 10% solution, tumor 5 × 8 × 8 mm, 100 J/cm^2 532 nm

## O=C1OC2(c3cc(I)c(O)c(I)c3Oc3c2cc(I)c(O)c3I)c2c(Cl)c(Cl)c(Cl)c(Cl)c21 [Rose Bengal, 4,5,6,7-tetrachloro-2′,4′,5′,7′-Tetraiodofluorescein]
[1]
  α: 100000 L/cm/mol
[1]; EtOH
  λmax (nm) EtOH: 557 nm
[1]; H2O
  λmax (nm) H2O: 547 nm
[1]; MeOH
  λmax (nm) MeOH: 556 nm
[2]; EtOH
  φ (singlet oxygen) EtOH: 0.75
[2]; H2O
  φ (singlet oxygen) H2O: 0.86
[2]; MeOH
  φ (singlet oxygen) MeOH: 0.76
  φ (triplet) MeOH: 0.76
Renal adenocarcinoma [3]; 10% solution p.o. approx. 50 mg/kg, 100 J/cm^2 532 nm, latency 3 hr
  Cure Rate: 60% (3/5)
Renal adenocarcinoma [3]; 10% solution p.o. approx. 50 mg/kg, 100 J/cm^2 532 nm, latency 3 hr, 5 tumors treated, eschar at tumor site 24 h after illumination
  No. Tumors With Positive Response: 3
Renal adenocarcinoma [3]; 10% solution p.o. approx. 50 mg/kg, 100 J/cm^2 532 nm, latency 20 hr
  Cure Rate: 78% (7/9)
Renal adenocarcinoma [3]; 10% solution p.o. approx. 50 mg/kg, 100 J/cm^2 532 nm, latency 20 hr, 9 tumors treated
  No. Tumors With Positive Response: 7
Renal adenocarcinoma [3]; No Light control, 0 J/cm^2, p.o. approx. 50 mg/kg
  Cure Rate: 0% (0/2)
Renal adenocarcinoma [3]; No Light control, 0 J/cm^2, p.o. approx. 50 mg/kg, 2 tumors treated
  No. Tumors With Positive Response: 0
Renal adenocarcinoma [3]; p.o. approx. 50 mg/kg, tumor and peritumoral area illuminated, 100 J/cm^2 532 nm
  Damage in peritumoral tissues: eschar formation selectively at the tumor site. No damage was noted in peritumoral tissues. “No Light” and
BNL/SV40 Liver Cell
  Cure Rate: 25%
BNL/SV40 Liver Cell; 8 treated, reoccurrence at 2-3 weeks
  No. Tumors Cured: 2
[4]
  Cure Rate: 100%
[4]; 2 treated
  No. Tumors Cured: 2
Renal Adenocarcinoma [5]; [11]
  Cure Rate: 0%
  No. Tumors Cured: 0
Renal Adenocarcinoma [5]; [12]
  Cure Rate: 100%
  No. Tumors Cured: 4
Renal Adenocarcinoma [5]; [13]
  Cure Rate: 50%
  No. Tumors Cured: 2
[6]; 10-30 μL of 10% solution (1-3 mg) p.o., 532 nm, 50-200 J/cm^2, 3-48 hours post administration
  Tumor response after p.o. administration and illumination: selective destruction of tumor tissue with no substantive effect in healthy surrounding tissue
[6]; i.t., similar formulation, light at 532 nm
  Tumor response after intratumoral injection and illumination: selective tumor destruction
[7]
  Injected dose remaining in the tumor: more than 75%
  Tissue localization after i.t. administration: persistent accumulation and retention of Rose Bengal uniformly throughout the tumor volume
Cutaneous lipocytes; aqueous solution i.p. or p.o., cutaneous fat deposits of obese mice
  Tissue accumulation after systemic administration: highly selective accumulation
Cutaneous lipocytes; illumination of skin at approximately 532 nm after systemic administration
  Photodynamic effect on lipocytes: selective photodynamic destruction of such lipocytes with no effect in overlying skin or underlying muscle tissue
[8]; light between about 500 nm and 600 nm
  Light cytotoxicity: effect on cell cultures: immediate and complete kill
[8]; no illumination
  Dark cytotoxicity: effect on viability of cultures: no measurable effect on the viability
Cutaneous tumors
  Tumor response: substantial or complete photodynamic eradication
Esophageal tissue
  Tissue response in illuminated region: controlled, localized photodynamic destruction of tissues in the treated region
Prostate tumor
  Tumor response: controlled, localized photodynamic eradication
Lung tumor
  Tumor response: controlled, localized photodynamic eradication
Metastatic breast tumor
  Tumor response: controlled, localized photodynamic eradication
Thyroid tumor
  Tumor response: controlled, localized photodynamic eradication
[9]
  Serum levels of Rose Bengal: transient elevation of serum levels
[10]
  Eradication of microbes: substantial or complete eradication
Escherichia coli
  Eradication of microbes: substantial or complete eradication
Various yeasts
  Eradication of microbes: substantial or complete eradication
